Assay results published in PubChem BioAssay AID328 (DTP/NCI, 2004).
Where “and” joins values, the source holds several entries; their conditions need not be identical. Equal entries are not always repeated. Inconclusive results and toxic doses are left out.

System: BDF1 mice, P388 leukemia ip, median survival T/C
Assay: NCI In Vivo Anticancer Drug Screen. Data for tumor model P388 Leukemia (intraperitoneal) in B6D2F1 (BDF1) mice
Conditions: endpoint: median survival time, higher = longer survival
Summary of the method: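 Read-out is survival of treated animals expressed relative to the vehicle group, as a T/C ratio.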

[1] = dose: 50.0 mg/kg/injection, schedule: Q01DX009 (ip), vehicle: saline with Tween-80
[2] = dose: 100.0 mg/kg/injection, schedule: Q01DX009 (ip), vehicle: Klucel (hydroxypropylcellulose) (HPC)
[3] = dose: 100.0 mg/kg/injection, schedule: Q01DX009 (ip), vehicle: saline with Tween-80
[4] = dose: 100.0 mg/kg/injection, schedule: Q01DX009 (ip), vehicle: saline
[5] = dose: 100.0 mg/kg/injection, schedule: Q04DX003 (ip), vehicle: saline
[6] = dose: 200.0 mg/kg/injection, schedule: Q01DX009 (ip), vehicle: Klucel (hydroxypropylcellulose) (HPC)
[7] = dose: 200.0 mg/kg/injection, schedule: Q01DX009 (ip), vehicle: saline with Tween-80
[8] = dose: 200.0 mg/kg/injection, schedule: Q04DX003 (ip), vehicle: saline
[9] = dose: 400.0 mg/kg/injection, schedule: Q01DX009 (ip), vehicle: saline
[10] = dose: 400.0 mg/kg/injection, schedule: Q04DX003 (ip), vehicle: saline
[11] = dose: 6.25 mg/kg/injection, schedule: Q01DX009 (ip), vehicle: saline
[12] = dose: 12.5 mg/kg/injection, schedule: Q01DX009 (ip), vehicle: saline
[13] = dose: 25.0 mg/kg/injection, schedule: Q01DX009 (ip), vehicle: saline
[14] = dose: 50.0 mg/kg/injection, schedule: Q01DX009 (ip), vehicle: saline
[15] = dose: 50.0 mg/kg/injection, schedule: Q04DX003 (ip), vehicle: saline
[16] = dose: 200.0 mg/kg/injection, schedule: Q01DX009 (ip), vehicle: saline
[17] = dose: 100.0 mg/kg/injection, schedule: Q01DX001 (ip), vehicle: saline
[18] = dose: 200.0 mg/kg/injection, schedule: Q01DX001 (ip), vehicle: saline
[19] = dose: 400.0 mg/kg/injection, schedule: Q01DX001 (ip), vehicle: saline
[20] = dose: 12.5 mg/kg/injection, schedule: Q04DX003 (ip), vehicle: saline
[21] = dose: 25.0 mg/kg/injection, schedule: Q04DX003 (ip), vehicle: saline
[22] = dose: 100.0 mg/kg/injection, schedule: Q04DX003 (ip), vehicle: Klucel (hydroxypropylcellulose) (HPC)
[23] = dose: 200.0 mg/kg/injection, schedule: Q04DX003 (ip), vehicle: Klucel (hydroxypropylcellulose) (HPC)
[24] = dose: 60.0 mg/kg/injection, schedule: Q01DX009 (ip), vehicle: saline with Tween-80
[25] = dose: 400.0 mg/kg/injection, schedule: Q01DX009 (ip), vehicle: saline with Tween-80

SMILES: Nc1ccc(N=Nc2ccccc2)c(N)c1
- T/C (dose: 25.0 mg/kg/injection, schedule: Q01DX009 (ip), vehicle: saline with Tween-80): 88 % of control
- T/C [1]: 99 % of control
- T/C [2]: 91 % of control
- T/C [3]: 113 % of control
- T/C [4]: 120 % of control
- T/C [5]: 86 % of control
- T/C [6]: 100 % of control
- T/C [7]: 115 % of control
- T/C [8]: 100 % of control
- T/C [9]: 115 % of control
- T/C [10]: 104 % of control

SMILES: O=C(CC(c1ccccc1)C1CCCN(c2ccccc2)S1(=O)=O)c1ccccc1 (centres undefined)
- T/C [1]: 109 % of control
- T/C [3]: 114 % of control
- T/C [7]: 97 % of control

SMILES: CCC(c1ccc(OC)cc1)C(NCC(=O)N/N=C/c1ccccc1[N+](=O)[O-])c1ccc(OC)cc1 (centres undefined)
- T/C (dose: 12.5 mg/kg/injection, schedule: Q01DX001 (ip), vehicle: saline with Tween-80): 91 % of control

SMILES: COc1cccc(/C=C/[N+](=O)[O-])c1OC
- T/C (dose: 6.25 mg/kg/injection, schedule: Q01DX009 (ip), vehicle: Klucel (hydroxypropylcellulose) (HPC)): 113 % of control
- T/C [11]: 100 % of control
- T/C [12]: 106 % of control
- T/C (dose: 12.5 mg/kg/injection, schedule: Q01DX010 (ip), vehicle: carboxymethylcellulose (CMC)): 115 % of control
- T/C [13]: 104 % of control
- T/C (dose: 35.0 mg/kg/injection, schedule: Q01DX009 (ip), vehicle: Klucel (hydroxypropylcellulose) (HPC)): 117 % of control
- T/C [14]: 113 % of control
- T/C [15]: 102 % of control
- T/C [4]: 104 % of control
- T/C [5]: 98 % of control
- T/C [16]: 91 % of control
- T/C [8]: 95 % of control
- T/C [9]: 91 % of control
- T/C [10]: 106 % of control

SMILES: O=c1[nH]cnc2c1ncn2C1OC(CF)C(O)C1O (centres undefined)
- T/C [17]: 108 % of control
- T/C [4]: 86 % of control
- T/C [18]: 108 % of control
- T/C [16]: 91 % of control
- T/C [19]: 108 % of control
- T/C [9]: 86 % of control

SMILES: CCCCCCC(N)C(C)O (centres undefined)
- T/C [12]: 105 % of control
- T/C [13]: 100 % of control
- T/C [1]: 101 % of control
- T/C [14]: 105 % of control

SMILES: Cc1nn(-c2ccccc2)c(N)c1C#N
- T/C [11]: 111 % of control
- T/C [12]: 94 % of control
- T/C [20]: 98 % of control
- T/C [13]: 102 % of control
- T/C (dose: 25.0 mg/kg/injection, schedule: Q04DX003 (ip), vehicle: Klucel (hydroxypropylcellulose) (HPC)): 98 % of control
- T/C [21]: 163 % of control
- T/C [14]: 111 % of control
- T/C (dose: 50.0 mg/kg/injection, schedule: Q04DX003 (ip), vehicle: Klucel (hydroxypropylcellulose) (HPC)): 98 % of control
- T/C [15]: 86 % of control
- T/C [4]: 96 % of control
- T/C [22]: 121 % of control
- T/C [5]: 87 % of control
- T/C [16]: 111 % of control
- T/C [23]: 113 % of control
- T/C [8]: 269 % of control
- T/C [9]: 105 % of control
- T/C (dose: 400.0 mg/kg/injection, schedule: Q04DX003 (ip), vehicle: Klucel (hydroxypropylcellulose) (HPC)): 102 % of control

SMILES: O=[N+]([O-])c1ccc(N2CCN(c3ccc(Cl)cc3)CC2)c2c1no[n+]2[O-]
- T/C (dose: 15.0 mg/kg/injection, schedule: Q01DX009 (ip), vehicle: saline with Tween-80): 100 % of control
- T/C (dose: 30.0 mg/kg/injection, schedule: Q01DX009 (ip), vehicle: saline with Tween-80): 99 % of control
- T/C [24]: 99 % of control

SMILES: O=c1[nH]n(-c2ccccc2)c(=O)cc1Cl
- T/C [1]: 95 % of control
- T/C [3]: 87 % of control
- T/C [7]: 90 % of control

SMILES: O=[N+]([O-])c1ccc(/C=N/c2nccs2)o1
- T/C (dose: 3.12 mg/kg/injection, schedule: Q04DX003 (ip), vehicle: saline): 107 % of control
- T/C (dose: 6.25 mg/kg/injection, schedule: Q04DX003 (ip), vehicle: saline): 106 % of control and 107 % of control
- T/C [12]: 92 % of control
- T/C [20]: 92 % of control and 107 % of control and 115 % of control
- T/C [13]: 90 % of control
- T/C [21]: 107 % of control and 111 % of control and 115 % of control
- T/C [14]: 94 % of control
- T/C [15]: 101 % of control and 107 % of control
- T/C [4]: 86 % of control
- T/C [5]: 109 % of control and 110 % of control
- T/C [16]: 98 % of control

SMILES: COc1cccc(CC(N)=O)c1OC
- T/C [13]: 99 % of control
- T/C [14]: 99 % of control
- T/C [15]: 109 % of control
- T/C [4]: 97 % of control
- T/C [5]: 87 % of control and 99 % of control
- T/C [16]: 92 % of control
- T/C [8]: 90 % of control and 94 % of control
- T/C [10]: 100 % of control

SMILES: COc1ccc2c(C(=O)CCC(=O)O)cccc2c1
- T/C [17]: 100 % of control
- T/C [18]: 100 % of control
- T/C [19]: 100 % of control

SMILES: O=C(O)c1cc(S(=O)(=O)F)cc(S(=O)(=O)F)c1
- T/C (dose: 25.0 mg/kg/injection, schedule: Q01DX009 (ip), vehicle: alcohol): 113 % of control
- T/C (dose: 33.0 mg/kg/injection, schedule: Q01DX009 (ip), vehicle: alcohol): 116 % of control
- T/C (dose: 50.0 mg/kg/injection, schedule: Q01DX009 (ip), vehicle: alcohol): 112 % of control

SMILES: C[CH2][Ge]1([CH2]C)[CH2]CC2(CCN(CCCN(C)C)C2)C[CH2]1
- T/C (dose: 0.5 mg/kg/injection, schedule: Q01DX009 (ip), vehicle: saline): 105 % of control
- T/C (dose: 1.0 mg/kg/injection, schedule: Q01DX009 (ip), vehicle: saline): 102 % of control
- T/C (dose: 2.0 mg/kg/injection, schedule: Q01DX009 (ip), vehicle: saline): 103 % of control
- T/C (dose: 4.0 mg/kg/injection, schedule: Q01DX009 (ip), vehicle: saline): 104 % of control and 118 % of control
- T/C (dose: 8.0 mg/kg/injection, schedule: Q01DX009 (ip), vehicle: saline): 102 % of control
- T/C (dose: 16.0 mg/kg/injection, schedule: Q01DX009 (ip), vehicle: saline): 103 % of control
- T/C (dose: 32.0 mg/kg/injection, schedule: Q01DX009 (ip), vehicle: saline): 100 % of control
- T/C [14]: 102 % of control
- T/C [24]: 92 % of control
- T/C (dose: 64.0 mg/kg/injection, schedule: Q01DX009 (ip), vehicle: saline): 91 % of control

SMILES: OCC(F)(F)C(F)(F)C(F)(F)F
- T/C [3]: 100 % of control
- T/C [7]: 104 % of control
- T/C [25]: 109 % of control

SMILES: CCOC(=O)C(C(=O)OCC)C1c2ccccc2C(=O)N(CCN(C)C)c2ccccc21 (centres undefined)
- T/C [13]: 109 % of control
- T/C [14]: 95 % of control
- T/C [15]: 91 % of control
- T/C [4]: 104 % of control
- T/C [5]: 87 % of control

SMILES: CCOC(=O)c1[nH]cnc1/N=N/N(C)C
- T/C (dose: 26.4 mg/kg/injection, schedule: Q01DX009 (ip), vehicle: saline with Tween-80): 175 % of control
- T/C [24]: 87 % of control

SMILES: C#CCCOC(=O)Nc1ccccc1
- T/C [2]: 100 % of control
- T/C [6]: 90 % of control
- T/C (dose: 400.0 mg/kg/injection, schedule: Q01DX009 (ip), vehicle: Klucel (hydroxypropylcellulose) (HPC)): 90 % of control

SMILES: CC(C)C(O)(C(=O)NN)C(=O)NN
- T/C [3]: 100 % of control
- T/C [7]: 109 % of control
- T/C [25]: 100 % of control

SMILES: CCCCCCCCC(=O)CCCCC
- T/C [5]: 100 % of control
- T/C [8]: 91 % of control
- T/C [10]: 95 % of control

SMILES: O=c1[nH]nc(NCCO)c2ccccc12
- T/C [1]: 112 % of control
- T/C [3]: 91 % of control
- T/C [7]: 102 % of control

SMILES: COc1cc2cc(c1Cl)N(C)C(=O)C[C@H](OC(=O)[C@H](C)N(C)C(=O)CC(C)C)[C@]1(C)O[C@H]1[C@H](C)[C@@H]1C[C@@](O)(NC(=O)O1)[C@H](OC)C=C/C=C(\C)C2
- T/C (dose: 0.1 micrograms/kg/injection, schedule: Q01DX009 (ip), vehicle: saline + alcohol): 120 % of control
- T/C (dose: 0.4 micrograms/kg/injection, schedule: Q01DX009 (ip), vehicle: saline + alcohol): 174 % of control
- T/C (dose: 0.8 micrograms/kg/injection, schedule: Q01DX009 (ip), vehicle: saline + alcohol): 158 % of control
- T/C (dose: 1.6 micrograms/kg/injection, schedule: Q01DX009 (ip), vehicle: saline + alcohol): 154 % of control
- T/C (dose: 3.1 micrograms/kg/injection, schedule: Q01DX009 (ip), vehicle: saline + alcohol): 158 % of control and 165 % of control
- T/C (dose: 6.2 micrograms/kg/injection, schedule: Q01DX009 (ip), vehicle: saline + alcohol): 154 % of control and 201 % of control
- T/C (dose: 12.5 micrograms/kg/injection, schedule: Q01DX009 (ip), vehicle: saline + alcohol): 177 % of control and 187 % of control
- T/C (dose: 25.0 micrograms/kg/injection, schedule: Q01DX009 (ip), vehicle: saline + alcohol): 116 % of control

SMILES: COC(=O)c1cc(=O)n(-c2cccc(F)c2)c(SC)n1
- T/C [22]: 114 % of control
- T/C [23]: 114 % of control
